# Tests used:
# [1] = Pharmacokinetics in humans (healthy male subjects); type: in vivo, human
# Experimental: Pharmacokinetic properties have been investigated in healthy male subjects. […] The elimination half-life for the NK3RA was approximately 7 hours. […] Renal elimination of the NK3RA or its metabolite was negligible. Following multiple dose administration, pharmacokinetic steady state was achieved within 4 days. At steady state, the exposure to the metabolite was approximately 66% of the parent circulated; the accumulation of the NK3RA in the plasma was minimal following QD dosing and was greater following BID dosing.
# dogs [2] = assay: Dog electrocardiographic (ECG) telemetry study; type: in vivo
# [3] = Pharmacokinetics and metabolism in rats; type: in vivo, rat
# Experimental: At low doses, the estimated Clp of The NK3RA was moderate in rat (8.3 ml/min/kg) and low in the dog (1.2 ml/min/kg). Bioavailability (F) was ˜100% in both species indicating extensive absorption in these species. The volume of distribution (Vz) was moderate (1.6 L·kg in rat and 0.81 L/kg in dog) and consistent with the physico-chemical properties of the compound. […] The NK3RA exposure decreased after multiple dosing in rats, indicating either changes in absorption or induction of The NK3RA metabolism, or both, after multiple dosing. […] T1/2 values ranged from 5.6 hours to 14.3 hours at the end of dosing for dogs dosed at 1000 mg/kg/day (2180 μmol/kg/day). There were no consistent sex differences observed in the exposure to NK3RA in these 2 species.
# Following oral administration of The NK3RA in the rat, a pharmacologically active ketone metabolite appeared rapidly in plasma but slowly reached maximum concentration levels in all animals. […] T1/2 values ranged from 8.51 hours to 13.8 hours on Day 27 and Day 28 for dogs dosed with 1000 mg/kg/day (2180 μmol/kg/day) of the NK3RA. There were no consistent sex differences observed in the exposure to the metabolite in these 2 species.
# rat = assay: Modified rat Irwin test; type: in vivo; conditions: oral 46, 460 and 2022 mg/kg
# Experimental: Safety pharmacology studies were carried out on NK3RA and included tests to investigate possible effects on the central nervous system (CNS), cardiovascular system, and respiratory system.
# dogs [4] = assay: Single and repeat-dose toxicology in dogs; type: in vivo, dog
# From the text: In female dogs, ovarian uterine weights were reduced in treated animals. […] Thyroid weights were increased in the high dose group females. No other target organs have been identified.
# Epididymides and prostate glands had gained maturity, but aspermia was present in all dogs and testicular immaturity remained. […]
# serum testosterone = assay: SAD and MAD studies, serum testosterone in healthy male volunteers; type: in vivo, human
# hrNK3 receptor = biological target: T1, hrNK3 receptor (Homo sapiens, UniProt P29371); assay: Intracellular Calcium Mobilisation Assay (hrNK3 CHO-K1 cells, Senktide, FLIPR); type: cell-based
# T1 construct: expressed in transfected cells; host or cells: CHO-K1
# T1 sequence (P29371 1-465): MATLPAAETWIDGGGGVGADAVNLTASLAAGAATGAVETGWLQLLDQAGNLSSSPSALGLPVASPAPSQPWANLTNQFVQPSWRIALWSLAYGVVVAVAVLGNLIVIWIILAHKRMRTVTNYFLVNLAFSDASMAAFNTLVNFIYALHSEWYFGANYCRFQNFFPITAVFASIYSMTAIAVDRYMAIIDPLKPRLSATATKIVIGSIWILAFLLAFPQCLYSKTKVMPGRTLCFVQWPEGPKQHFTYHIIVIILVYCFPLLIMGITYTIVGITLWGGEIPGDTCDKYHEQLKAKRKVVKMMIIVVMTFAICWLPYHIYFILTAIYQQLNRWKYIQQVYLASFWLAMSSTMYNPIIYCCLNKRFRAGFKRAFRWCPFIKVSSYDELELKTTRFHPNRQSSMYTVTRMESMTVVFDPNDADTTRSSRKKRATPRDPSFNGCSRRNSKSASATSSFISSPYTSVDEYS
# Experimental: The activity of a compound in antagonising the hrNK3 receptor expressed in CHO cells may be measured in the following Intracellular Calcium Mobilisation Assay:
# CHO-K1 cells stably transfected with human recombinant Neurokinin-3 receptor (hrNK3 CHO-K1) were cultured in […] tissue culture flasks as monolayers in complete Ham's F-12 media (supplemented with 10% (v/v) FBS, 2 mM L-glutamine and […] Hygromycin B). Cultures are maintained under standard tissue culture conditions. For experiments, PBS was used to wash cells free of culture media and Trypsin was used to detach cells from the flask surface. Cells were counted, pelleted by centrifugation (100 g for 5 min) and resuspended in cell plating medium (UltraCULTURE by BioWhittaker 12-725F containing 200 mM L-Glutamine). […]
# Changes in intracellular free calcium were measured fluorometrically by loading hrNK3 CHO-K1 in 384-well plates with the calcium sensitive fluorescent dye, Fluo-4AM as described previously (Xiong et. al., Bioorg. Med. Chem. Lett. 2011, 21, 1896). […]
# A test compound was pre-dissolved in DMSO and incubated with cells to a final concentration of 0.1% (v/v) DMSO for 15 minutes. Assays were initiated by the addition of Senktide (purchased from Bachem) and the transient increase in Fluo-4-fluorescence monitored using a FLIPR (Fluorometric Imaging Plate Reader, Molecular Devices, Sunnyvale, U.S.A.).
compound,measurement,setting,value
"CC[C@H](NC(=O)c1c(NS(C)(=O)=O)c(-c2ccccc2)nc2ccccc12)c1ccccc1 [NK3RA, 3-(methanesulfonamido)-2-phenyl-N-[(1S)-1-phenylpropyl]quinoline-4-carboxamide]",accumulation in the plasma,[1]; BID dosing (compared with QD),greater
same,accumulation in the plasma,[1]; QD dosing,minimal
same,absorption following oral dosing,[1]; healthy male subjects,quickly absorbed
same,renal elimination,[1]; healthy male subjects,negligible
same,time dependence of pharmacokinetics,"[1]; human, in vivo",time independent
same,half-life,"[1]; human, plasma, oral, healthy male subjects, read-out: elimination half-life (converted)",~7 h
same,time to pharmacokinetic steady state,[1]; multiple dose administration,≤ 4 days
same,dose proportionality of AUC and Cmax,[1]; up to approximately 80 mg,dose proportional
same,effect on blood pressure,dogs [2],no effect
same,other ECG parameters including QTc interval duration,dogs [2],"No other ECG parameter, including QTc interval duration, was affected"
same,reduction in heart rate,"dogs [2]; highest dose tested 2000 mg/kg orally, transient, dose-related",up to 29%
same,clearance,"[3]; plasma, rat, low doses, estimated, read-out: Clp",8.3 mL/min/kg
same,volume of distribution (Vz),[3]; rat,1.6 L/kg
same,rate of absorption,"[3]; rat, oral administration",absorbed at a moderate rate
same,bioavailability,"[3]; rat, plasma, oral, read-out: Bioavailability (F)",~100%
same,half-life,"[3]; rat, plasma, read-out: elimination half-life (T½) (converted)",3.2 h
same,exposure after multiple dosing,[3]; rats,decreased
same,findings in modified Irwin test,rat,no significant findings
same,"NOEL (testis, epididymis and prostate weights)",dogs [4]; dog,no NOEL was established
same,plasma testosterone levels throughout the study,dogs [4]; dog,virtually totally suppressed
same,testes weights following the recovery period,dogs [4]; dog,only partially returned to control values
same,time after dosing by which plasma testosterone was very low,dogs [4]; dog,≤ 4 h
same,hepatobiliary toxicity,dogs [4]; dogs,hepatobiliary toxicity in one high dose male
same,thyroid weights,"dogs [4]; dogs, high dose group females",increased
same,liver weights,"dogs [4]; dogs, mid and high doses",Increased
same,"tolerability, multiple dosing for three month","dogs [4]; dogs, up to 1000 mg/kg/day",well tolerated
same,"tolerability, single dosing","dogs [4]; dogs, up to the limit dose of 2000 mg/kg",well tolerated
same,"female reproductive findings, 3-month study",dogs [4]; female dogs,reductions in ovarian and uterine weights and an increased incidence of anestrus
same,ovarian uterine weights,dogs [4]; female dogs,reduced
same,recovery of female reproductive findings,"dogs [4]; female dogs, following 3 months off-dose",complete recovery
same,target organs in males,dogs [4]; male dogs,"the testis, epididymis, and prostate were target organs"
same,serum testosterone,"serum testosterone; healthy male volunteers, SAD 1-80 mg, MAD 5 mg QD to 30 mg BID for up to 6 days",dose dependent reduction in serum testosterone
same,durability of total testosterone reduction,serum testosterone; male volunteers and male schizophrenia patients,reductions in total testosterone levels durable up to 28 days
same,activity at the hrNK3 receptor expressed in CHO cells,hrNK3 receptor,antagonist of the hrNK3 receptor

# Source: patent publication US9475773B2, “NK3 receptor antagonist compound (NK3RA) for use in a method for the treatment of polycystic ovary syndrome (PCOS)” (ASTRAZENECA AB, priority 2013, dated 2016)
